Laboratory results taken from patent publication US11814364B2, “Pyridine N-oxide derivatives useful as factor XIa inhibitors” (Janssen Pharmaceutica NV, priority 2021, dated 2023).
Where a SMILES comes first, the peptide text is derived from it. The star is where a group is joined. AMC = Cc1cc(=O)oc2cc(N*)ccc12; Cbz = O=C(OCc1ccccc1)*

What follows are compounds tested against human plasma kallikrein (Homo sapiens, UniProt P03952) (assay: Kallikrein inhibition FLINT assay with quenched AMC peptide substrate Z-Gly-Pro-Arg-AMC (end point EP or kinetic KIN reads)). Details: end point read at 30 min; read-out: Kallikrein (EP) IC50.
Sequence of human plasma kallikrein (P03952 391-638 limits assumed): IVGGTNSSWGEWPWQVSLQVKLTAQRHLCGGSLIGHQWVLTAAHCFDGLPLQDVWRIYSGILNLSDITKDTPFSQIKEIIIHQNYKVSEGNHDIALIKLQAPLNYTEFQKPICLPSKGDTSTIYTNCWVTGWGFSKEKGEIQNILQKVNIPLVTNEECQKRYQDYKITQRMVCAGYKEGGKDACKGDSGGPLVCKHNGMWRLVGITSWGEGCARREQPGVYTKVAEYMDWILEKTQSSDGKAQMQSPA
Sequence of human plasma kallikrein (P03952 20-390 partner limits assumed): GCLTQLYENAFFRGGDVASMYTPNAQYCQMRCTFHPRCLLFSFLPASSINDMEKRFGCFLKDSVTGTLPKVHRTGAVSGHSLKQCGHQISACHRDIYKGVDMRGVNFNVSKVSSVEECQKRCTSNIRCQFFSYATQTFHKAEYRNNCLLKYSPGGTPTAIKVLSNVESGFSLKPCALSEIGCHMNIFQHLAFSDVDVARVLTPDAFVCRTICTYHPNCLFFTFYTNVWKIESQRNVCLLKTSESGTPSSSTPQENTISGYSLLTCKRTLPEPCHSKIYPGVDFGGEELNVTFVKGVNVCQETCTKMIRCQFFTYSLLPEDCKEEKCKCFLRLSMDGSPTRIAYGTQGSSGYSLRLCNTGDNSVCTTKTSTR
Format: biochemical
Method in brief: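 Enzyme and compound were preincubated 30 min before adding 50 μM AMC substrate in pH 7.5 Tris/NaCl/CaCl2/BSA/CHAPS buffer. AMC release was read at 30 min endpoint or every 5 min.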

IC50	Structure (SMILES)
800 nM	O=C(O)c1ccc(-c2cnn(C(c3cn(-c4ccccc4)nn3)c3ccc(-c4c(-n5cnnn5)ccc(Cl)c4F)c[n+]3[O-])c2)cc1 (stereo not shown) [Example P35]
114 nM	Nc1ccc(-c2cnn(C(CC3CC3)c3ccc(-c4c(-n5cnnn5)ccc(Cl)c4F)c[n+]3[O-])c2)cn1 (stereo not shown) [Example P24]

Same assay, conditions: kinetic reads at 5 min intervals over 30 min; read-out: Kallikrein (KIN) IC50

IC50	Structure (SMILES)
517 nM	Cn1ccc(C[C@H](c2ccc(-c3cc(Cl)ccc3OCC(F)(F)F)c[n+]2[O-])n2cc(-c3ccc(C(=O)O)cc3)cn2)n1 [Example Q58]
7.6 nM	Cc1nnc(CC(c2ccc(-c3c(-n4cc(C(F)(F)F)nn4)ccc(Cl)c3F)c[n+]2[O-])n2cc(-c3ccc(C(N)=O)c(F)c3)cn2)o1 (stereo not shown) [Example P927]
95.6 nM	CC(C)(C)c1cc(-c2cnn(C(Cn3cc(F)cn3)c3ccc(-c4c(-n5cnnn5)ccc(Cl)c4F)c[n+]3[O-])c2)cc[n+]1[O-] (stereo not shown) [Example P436]
9.7 nM	COC(=O)Nc1ccc(-c2cnn(C(Cc3ccc(F)cc3)c3ccc(-c4c(-n5cnnn5)ccc(Cl)c4F)c[n+]3[O-])c2)cc1 (stereo not shown) [Example P117]
28.6 nM	[O-][n+]1cc(-c2c(-n3cnnn3)ccc(Cl)c2F)ccc1[C@@H](CCOC(F)F)n1cc(-c2c(Cl)nnn2C(F)F)cn1 [Example P714]
670 nM	[O-][n+]1cc(-c2c(-n3cc(C4CC4)nn3)ccc(Cl)c2F)ccc1C(Cn1cc(F)cn1)n1cc(-c2ccnc(C(F)(F)F)c2)cn1 (stereo not shown) [Example P485]
10.2 nM	Cn1ccc(CC(c2ccc(-c3c(-n4cnnn4)ccc(Cl)c3F)c[n+]2[O-])n2cc(-c3ccnc(C#N)c3)cn2)n1 (stereo not shown) [Example P359]
5.8 nM	O=C(O)c1ccc(-c2cnn(C(CCOC(F)F)c3ccc(-c4c(-n5cc(C(F)(F)F)nn5)ccc(Cl)c4F)c[n+]3[O-])c2)cc1F (single isomer, unassigned) [Example P887]
74.5 nM	NC(=O)C1CC1CC(c1ccc(-c2c(-n3cnnn3)ccc(Cl)c2F)c[n+]1[O-])n1cc(-c2ccc(N)nc2F)cn1 (single isomer, unassigned) [Example P338]
617 nM	O=C(C1CC1CC(c1ccc(-c2c(-n3cnnn3)ccc(Cl)c2F)c[n+]1[O-])n1cc(-c2ccncc2)cn1)N1CCCCC1 (stereo not shown) [Example P252]
189 nM	COC(=O)Nc1ccc(-c2cnn(C(CC3CC3C(=O)N3CCCC(c4ccccc4)C3)c3ccc(-c4c(-n5cnnn5)ccc(Cl)c4F)c[n+]3[O-])c2)cc1 (stereo not shown) [Example P222]
32.5 nM	N#Cc1cc(-c2cnn(C(CN3CCCC3=O)c3ccc(-c4c(-n5cnnn5)ccc(Cl)c4F)c[n+]3[O-])c2)ccn1 (stereo not shown) [Example P461]
1.8 nM	O=C(O)C1CCN(C(=O)c2ccn(CC(c3ccc(-c4c(-n5cnnn5)ccc(Cl)c4F)c[n+]3[O-])n3cc(-c4ccncc4)cn3)n2)CC1 (stereo not shown) [Example P444]
23 nM	COc1ccc(CC(c2ccc(-c3cc(Cl)ccc3-n3cnnn3)c[n+]2[O-])n2cc(-c3ccc(C(=O)NC4CC4)cc3)cn2)cc1 (stereo not shown) [Example P86]
841 nM	Cn1cc(-c2cnn(C(CC3CC3)c3ccc(-c4c(-n5cnnn5)ccc(Cl)c4F)c[n+]3[O-])c2)cn1 (stereo not shown) [Example P288]
16.2 nM	Cc1cc(-c2cnn(C(Cn3cccn3)c3ccc(-c4c(-n5cnnn5)ccc(Cl)c4F)c[n+]3[O-])c2)ccn1 (stereo not shown) [Example P285]
30.7 nM	O=C(O)c1ccc(-c2cnn(C(CCOC(F)F)c3ccc(-c4c(-n5cc(C(F)(F)F)nn5)ccc(Cl)c4F)c[n+]3[O-])c2)cc1 (stereo not shown) [Example P838]
~138 nM	O=C(O)c1ccn(CC(c2ccc(-c3c(-n4cnnn4)ccc(Cl)c3F)c[n+]2[O-])n2cc(-c3ccncc3)cn2)n1 (stereo not shown) [Example P442]
72.9 nM	[O-][n+]1cc(-c2c(-n3cnnn3)ccc(Cl)c2F)ccc1C(Cn1cccn1)n1cc(-c2ccnc(C(F)(F)F)c2)cn1 (single isomer, unassigned) [Example P514]
36.2 nM	O=C(NC1CC1)c1ccc(-c2cnn(C(CC3CCCCO3)c3ccc(-c4c(-n5cnnn5)ccc(Cl)c4F)c[n+]3[O-])c2)cc1 (single isomer, unassigned) [Example P77]

IC50	Structure (SMILES)
7.7 nM	Cn1nnc(Cl)c1-c1cnn([C@H](CCOC(F)F)c2ccc(-c3c(-n4cnnn4)ccc(Cl)c3F)c[n+]2[O-])c1 [Example P726]
36.6 nM	COC(=O)N(C)CC(c1ccc(-c2c(-n3cnnn3)ccc(Cl)c2F)c[n+]1[O-])n1cc(-c2ccnc(C(F)(F)F)c2)cn1 (single isomer, unassigned) [Example P381]
51 nM	Nc1ccc(-c2cnn(C(Cn3cccn3)c3ccc(-c4c(-n5cnnn5)ccc(Cl)c4F)c[n+]3[O-])c2)c(F)n1 (single isomer, unassigned) [Example P315]
397 nM	[O-][n+]1cc(-c2cc(Cl)ccc2-n2cnnn2)ccc1C(Cc1ccc(Cl)cc1)n1cc(-c2ccc(OC(F)(F)F)cc2)cn1 (stereo not shown) [Example P150]
4210 nM	Cn1nncc1-c1cnn([C@@H](Cc2ccc(C(F)(F)F)nc2)c2ccc(-c3c(-n4cc(Cl)nn4)ccc(Cl)c3F)c[n+]2[O-])c1 [Example P773]
3.7 nM	[O-][n+]1cc(-c2c(-n3cnnn3)ccc(Cl)c2F)ccc1C(Cn1cc(F)cn1)n1cc(-c2ccnc(C3CC3)c2)cn1 (stereo not shown) [Example P500]
4.2 nM	CS(=O)(=O)Nc1ccc(-c2cnn(C(Cc3ccccc3)c3ccc(-c4c(-n5cnnn5)ccc(Cl)c4F)c[n+]3[O-])c2)cc1 (stereo not shown) [Example P76]
14.9 nM	COc1cc(C(CC2CC2C(=O)N2CCCCC2)n2cc(-c3ccc(N)nc3C)cn2)[n+]([O-])cc1-c1c(-n2cnnn2)ccc(Cl)c1F (stereo not shown) [Example P248]
895 nM	[O-][n+]1cc(-c2cc(Cl)ccc2-n2cnnn2)ccc1C(Cc1ccc(Cl)cc1)n1cc(-c2cc(Cl)ccc2-n2cnnn2)cn1 (stereo not shown) [Example P152]
13.3 nM	COC(=O)Nc1ccc(-c2cnn(C(Cn3cc(F)cn3)c3ccc(-c4c(-n5cnnn5)ccc(Cl)c4F)c[n+]3[O-])c2)cc1 (stereo not shown) [Example P277]
29.1 nM	COC(=O)Nc1ccc(-c2cnn(C(CC3CCCCO3)c3ccc(-c4c(-n5cnnn5)ccc(Cl)c4F)c[n+]3[O-])c2)cc1 (single isomer, unassigned) [Example P115]
111 nM	NC(=O)c1ccc(-c2cnn(C(Cc3ccn(C(F)F)n3)c3ccc(-c4c(C(F)F)ccc(Cl)c4F)c[n+]3[O-])c2)cc1 (single isomer, unassigned) [Example Q68]
7710 nM	O=C(O)c1ccc(-c2cnn(C(c3cn(C4CCNCC4)nn3)c3ccc(-c4c(-n5cnnn5)ccc(Cl)c4F)c[n+]3[O-])c2)cc1 (stereo not shown) [Example P52]
9.7 nM	CN(CC(c1ccc(-c2c(-n3cnnn3)ccc(Cl)c2F)c[n+]1[O-])n1cc(-c2ccnc(C(F)(F)F)c2)cn1)C(=O)c1ccn(C)c(=O)c1 (single isomer, unassigned) [Example P435]
12.5 nM	O=C(c1cnn(CC(c2ccc(-c3c(-n4cnnn4)ccc(Cl)c3F)c[n+]2[O-])n2cc(-c3ccncc3)cn2)c1)N1CCCCC1 (stereo not shown) [Example P291]
137 nM	COC(=O)Nc1ccc(-c2cnn(C(Cc3cccc(OC)c3)c3ccc(-c4c(-n5cnnn5)ccc(Cl)c4F)c[n+]3[O-])c2)cc1 (single isomer, unassigned) [Example P206]
933 nM	COC(=O)N(C)CC(c1ccc(-c2c(-n3cnnn3)ccc(Cl)c2F)c[n+]1[O-])n1cc(-c2ccnc(F)c2)cn1 (single isomer, unassigned) [Example P355]
7.7 nM	Cc1cc(-c2cnn(C(CCOC(F)F)c3ccc(-c4c(-n5cnnn5)ccc(Cl)c4F)c[n+]3[O-])c2)ccn1 (stereo not shown) [Example P307]
7.2 nM	[2H]C([2H])([2H])OC([2H])([2H])CC(c1ccc(-c2c(-n3cc(C(F)(F)F)nn3)ccc(Cl)c2F)c[n+]1[O-])n1cc(-c2ccc(C(N)=O)c(F)c2)cn1 (single isomer, unassigned) [Example P913]
256 nM	Cn1ncnc1-c1cnn([C@H](CCOC(F)F)c2ccc(-c3cc(Cl)ccc3-n3cc(C(F)(F)F)nn3)c[n+]2[O-])c1 [Example P805]

Same assay, conditions: peptide substrate of kallikrein; titration data fit to Michaelis-Menten equation

Km	kcat	Structure (SMILES)
40 µM	0.76 s⁻¹	Cc1cc(=O)oc2cc(NC(=O)[C@H](CCCNC(=N)N)NC(=O)[C@@H]3CCCN3C(=O)CNC(=O)OCc3ccccc3)ccc12 [Z-Gly-Pro-Arg-AMC, reference compound] (Cbz-Gly-Pro-Arg-{AMC})

These compounds were tested against Factor XIa (Homo sapiens, UniProt P03951) (assay: Factor XIa inhibition FLINT assay with fluorophore-quencher peptide substrate 5Fam-[…]-K5Tamra (end point EP or kinetic KIN reads)). Details: end point read at 30 min; read-out: FXIa (EP) IC50.
Sequence of Factor XIa (P03951 388-625 limits assumed): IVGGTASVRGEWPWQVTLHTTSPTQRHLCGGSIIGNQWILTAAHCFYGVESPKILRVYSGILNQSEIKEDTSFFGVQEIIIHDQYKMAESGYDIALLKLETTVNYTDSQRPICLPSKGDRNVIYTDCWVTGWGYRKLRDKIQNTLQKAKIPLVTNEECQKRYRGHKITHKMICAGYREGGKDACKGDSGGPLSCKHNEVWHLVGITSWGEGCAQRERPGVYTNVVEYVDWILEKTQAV
Sequence of Factor XIa (P03951 19-387 partner limits assumed): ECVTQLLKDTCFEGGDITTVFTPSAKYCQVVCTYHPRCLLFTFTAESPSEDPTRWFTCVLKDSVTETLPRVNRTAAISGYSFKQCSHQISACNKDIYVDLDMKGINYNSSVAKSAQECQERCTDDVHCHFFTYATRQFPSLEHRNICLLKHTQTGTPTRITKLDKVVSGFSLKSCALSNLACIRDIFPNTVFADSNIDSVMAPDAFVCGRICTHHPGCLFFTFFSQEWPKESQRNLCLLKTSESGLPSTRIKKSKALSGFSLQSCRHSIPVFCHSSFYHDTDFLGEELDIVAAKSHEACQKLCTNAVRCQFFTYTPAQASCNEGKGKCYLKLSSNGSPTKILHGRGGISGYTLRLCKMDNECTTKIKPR
Format: biochemical
From the text: Factor XIa inhibition assay utilizing a fluorophore-quencher pair peptide substrate A fluorescence intensity (FLINT) based assay was used to monitor inhibition of Factor XIa. The peptide substrate, 5Fam-[…]-K5Tamra (purchased from New England Peptide) was chosen based on the FXI sequence. Conversion of zymogen FXI to its activated form, FXIa, occurs by proteolytic cleavage by […] at two sites, Arg146 and Arg180. The custom peptide used in this assay was based on the Arg146 cleavage site of FXI. The peptide substrate was designed with a fluorophore-quencher pair, where the fluorescence is quenched until FXIa cleaves the 8-mer peptide after the Arg residue.
Test compound(s) were run in an 11-point, 3-fold serial dilution with a final top compound concentration of 100 nM. Final DMSO in assay was 2%. FXIa was preincubated with compound for 30-minutes and then substrate was added to initiate the reaction. The assay was run with either end point (EP) reads at 30 min or kinetic (KIN) reads at 5 min intervals over 30 minutes. […] More specifically, the assay was run as follows: • 100 nL of 0.01 mM test compound was dispensed into black 384-well non-binding Greiner BioOne 784900 plate for 0.1 μM final concentration; • 5 μL of 1× assay buffer was dispensed to column 24 (low control) and 5 μL 2× Factor XIa solution was dispensed to columns 1-23 (column 23 high control); • the plate was centrifuged with a “cover” plate at 500 rpm for 1 min • the plate was pre-incubated for 30 minutes at room temperature with plate covered; • 5 μL of 2×5Fam-[…]-K5Tamra peptide substrate was dispensed into the entire plate, columns 1-24; • the plate was centrifuged with a “cover” plate at 500 rpm for 1 min; • the plate was read monitoring fluorescence intensity on the BMG PHERAStar at room temperature, using fluorescence module 485 nm/520 nm.
Percent inhibition (IC50) curves were generated per compound tested, and data was analyzed using a 4-parameter logistic fit using GeneData Screener. The relative fluorescence unit (RFU) values were normalized to percent inhibition using the following equation: % inhibition=((HC−LC)−(compound−LC)/(HC−LC))*100
An 11-point dose response curve for the test compound(s) was generated using GENDATA to determine IC50 value based on the following equation: Y=Bottom+(Top−Bottom)/(1+10^((log IC50−X)*HillSlope))
Results listed in columns with […] designation were measured using endpoint reads where a single fluorescence reading was measured for each well at a 30 min timepoint.

IC50	Structure (SMILES)
169 nM	O=C(O)c1ccc(-c2cnn(C(c3cn(-c4ccccc4)nn3)c3ccc(-c4c(-n5cnnn5)ccc(Cl)c4F)c[n+]3[O-])c2)cc1 (stereo not shown) [Example P35]
4.9 nM	Nc1ccc(-c2cnn(C(CC3CC3)c3ccc(-c4c(-n5cnnn5)ccc(Cl)c4F)c[n+]3[O-])c2)cn1 (stereo not shown) [Example P24]
